Results as given in ChEMBL document CHEMBL1147434, “Synthesis and biological results of the technetium-99m-labeled 4-nitroimidazole for imaging tumor hypoxia” (Bioorg Med Chem Lett, 2004).

How the values were obtained:
Format in all cases: ADME, organism-based
[1] = tested on: Mus musculus; assay: In vivo biodistribution of radiolabeled [99mTc]-N4IPA in mice tumor/liver bearing S180 tumor cell line for 1 hour; conditions: ccrf s-180, 1 h
[2] = tested on: Mus musculus; assay: In vivo biodistribution of radiolabeled [99mTc]-N4IPA in mice blood bearing S180 tumor cell line for 2 hours; conditions: ccrf s-180, 2 h
[3] = tested on: Mus musculus; assay: In vivo biodistribution of radiolabeled [99mTc]-N4IPA in mice blood bearing S180 tumor cell line for 4 hours; conditions: ccrf s-180, 4 h
[4] = tested on: Mus musculus; assay: In vivo biodistribution of radiolabeled [99mTc]-N4IPA in mice blood bearing S180 tumor cell line for 8 hours; conditions: ccrf s-180, 8 h
[5] = tested on: Mus musculus; assay: In vivo biodistribution of radiolabeled [99mTc]-N4IPA in mice brain bearing S180 tumor cell line for 1 hour; conditions: ccrf s-180, 1 h
[6] = tested on: Mus musculus; assay: In vivo biodistribution of radiolabeled [99mTc]N4IPA in mice brain bearing S180 tumor cell line for 2 hours; conditions: ccrf s-180, 2 h
[7] = tested on: Mus musculus; assay: In vivo biodistribution of radiolabeled [99mTc]N4IPA in mice brain bearing S180 tumor cell line for 30 minutes; conditions: ccrf s-180, 0.5 h
[8] = tested on: Mus musculus; assay: In vivo biodistribution of radiolabeled [99mTc]N4IPA in mice brain bearing S180 tumor cell line for 4 hours; conditions: ccrf s-180, 4 h
[9] = tested on: Mus musculus; assay: In vivo biodistribution of radiolabeled [99mTc]N4IPA in mice brain bearing S180 tumor cell line for 8 hours; conditions: ccrf s-180, 8 h
[10] = tested on: Mus musculus; assay: In vivo biodistribution of radiolabeled [99mTc]-N4IPA in mice heart bearing S180 tumor cell line for 1 hour; conditions: ccrf s-180, 1 h
[11] = tested on: Mus musculus; assay: In vivo biodistribution of radiolabeled [99mTc]N4IPA in mice heart bearing S180 tumor cell line for 2 hours; conditions: ccrf s-180, 2 h
[12] = tested on: Mus musculus; assay: In vivo biodistribution of radiolabeled [99mTc]-N4IPA in mice heart bearing S180 tumor cell line for 30 minutes; conditions: ccrf s-180, 0.5 h
[13] = tested on: Mus musculus; assay: In vivo biodistribution of radiolabeled [99mTc]N4IPA in mice heart bearing S180 tumor cell line for 4 hours; conditions: ccrf s-180, 4 h
[14] = tested on: Mus musculus; assay: In vivo biodistribution of radiolabeled [99mTc]N4IPA in mice heart bearing S180 tumor cell line for 8 hours; conditions: ccrf s-180, 8 h
[15] = tested on: Mus musculus; assay: In vivo biodistribution of radiolabeled [99mTc]-N4IPA in mice blood bearing S180 tumor cell line for 1 hour; conditions: ccrf s-180, 1 h
[16] = tested on: Mus musculus; assay: In vivo biodistribution of radiolabeled [99mTc]-N4IPA in mice tumor/muscle bearing S180 tumor cell line for 2 hours; conditions: ccrf s-180, 2 h
[17] = tested on: Mus musculus; assay: In vivo biodistribution of radiolabeled [99mTc]N4IPA in mice tumor/muscle bearing S180 tumor cell line for 30 minutes; conditions: ccrf s-180, 0.5 h
[18] = tested on: Mus musculus; assay: In vivo biodistribution of radiolabeled [99mTc]-N4IPA in mice tumor/muscle bearing S180 tumor cell line for 4 hours; conditions: ccrf s-180, 4 h
[19] = tested on: Mus musculus; assay: In vivo biodistribution of radiolabeled [99mTc]N4IPA in mice tumor/muscle bearing S180 tumor cell line for 8 hours; conditions: ccrf s-180, 8 h
[20] = tested on: Mus musculus; assay: In vivo biodistribution of radiolabeled [99mTc]N4IPA in mice tumor/liver bearing S180 tumor cell line for 2 hours; conditions: ccrf s-180, 2 h
[21] = tested on: Mus musculus; assay: In vivo biodistribution of radiolabeled [99mTc]N4IPA in mice tumor/liver bearing S180 tumor cell line for 30 minutes; conditions: ccrf s-180, 0.5 h
[22] = tested on: Mus musculus; assay: In vivo biodistribution of radiolabeled [99mTc]-N4IPA in mice tumor/liver bearing S180 tumor cell line for 4 hours; conditions: ccrf s-180, 4 h
[23] = tested on: Mus musculus; assay: In vivo biodistribution of radiolabeled [99mTc]-N4IPA in mice tumor/liver bearing S180 tumor cell line for 8 hours; conditions: ccrf s-180, 8 h
[24] = tested on: Mus musculus; assay: In vivo biodistribution of radiolabeled [99mTc]-N4IPA in mice tumor/lung bearing S180 tumor cell line for 1 hour; conditions: ccrf s-180, 1 h
[25] = tested on: Mus musculus; assay: In vivo biodistribution of radiolabeled [99mTc]N4IPA in mice tumor/lung bearing S180 tumor cell line for 2 hours; conditions: ccrf s-180, 2 h
[26] = tested on: Mus musculus; assay: In vivo biodistribution of radiolabeled [99mTc]-N4IPA in mice tumor/lung bearing S180 tumor cell line for 30 minutes; conditions: ccrf s-180, 0.5 h
[27] = tested on: Mus musculus; assay: In vivo biodistribution of radiolabeled [99mTc]-N4IPA in mice tumor/lung bearing S180 tumor cell line for 4 hours; conditions: ccrf s-180, 4 h
[28] = tested on: Mus musculus; assay: In vivo biodistribution of radiolabeled [99mTc]-N4IPA in mice tumor/lung bearing S180 tumor cell line for 8 hours; conditions: ccrf s-180, 8 h
[29] = tested on: Mus musculus; assay: In vivo biodistribution of radiolabeled [99mTc]N4IPA in mice tumor/muscle bearing S180 tumor cell line for 1 hour; conditions: ccrf s-180, 1 h
[30] = tested on: Mus musculus; assay: In vivo biodistribution of radiolabeled [99mTc]N4IPA in mice kidney bearing S180 tumor cell line for 1 hour; conditions: ccrf s-180, 1 h
[31] = tested on: Mus musculus; assay: In vivo biodistribution of radiolabeled [99mTc]N4IPA in mice kidney bearing S180 tumor cell line for 2 hours; conditions: ccrf s-180, 2 h
[32] = tested on: Mus musculus; assay: In vivo biodistribution of radiolabeled [99mTc]-N4IPA in mice kidney bearing S180 tumor cell line for 30 minutes; conditions: ccrf s-180, 0.5 h
[33] = tested on: Mus musculus; assay: In vivo biodistribution of radiolabeled [99mTc]-N4IPA in mice blood bearing S180 tumor cell line for 30 minutes; conditions: ccrf s-180, 0.5 h
[34] = tested on: Mus musculus; assay: In vivo biodistribution of radiolabeled [99mTc]-N4IPA in mice lung bearing S180 tumor cell line for 1 hour; conditions: ccrf s-180, 1 h
[35] = tested on: Mus musculus; assay: In vivo biodistribution of radiolabeled [99mTc]-N4IPA in mice tumor/heart bearing S180 tumor cell line for 30 minutes; conditions: ccrf s-180, 0.5 h

Biodistribution [1]: 0.57 % g-1
Biodistribution [2]: 0.22 % g-1
Biodistribution [3]: 0.18 % g-1
Biodistribution [4]: 0.15 % g-1
Biodistribution [5]: 0.04 % g-1
Biodistribution [6]: 0.04 % g-1
Biodistribution [7]: 0.04 % g-1
Biodistribution [8]: 0.04 % g-1
Biodistribution [9]: 0.04 % g-1
Biodistribution [10]: 0.14 % g-1
Biodistribution [11]: 0.12 % g-1
Biodistribution [12]: 0.24 % g-1
Biodistribution [13]: 0.08 % g-1
Biodistribution [14]: 0.06 % g-1
Biodistribution [15]: 0.28 % g-1
Biodistribution [16]: 8.12 % g-1
Biodistribution [17]: 3.66 % g-1
Biodistribution [18]: 8.6 % g-1
Biodistribution [19]: 8.83 % g-1
Biodistribution [20]: 0.85 % g-1
Biodistribution [21]: 0.56 % g-1
Biodistribution [22]: 0.88 % g-1
Biodistribution [23]: 1.41 % g-1
Biodistribution [24]: 2.06 % g-1
Biodistribution [25]: 2.24 % g-1
Biodistribution [26]: 1.42 % g-1
Biodistribution [27]: 2.94 % g-1
Biodistribution [28]: 3.09 % g-1
Biodistribution [29]: 4.25 % g-1
Biodistribution [30]: 5.44 % g-1
Biodistribution [31]: 3.8 % g-1
Biodistribution [32]: 5.63 % g-1
Biodistribution [33]: 0.7 % g-1
Biodistribution [34]: 0.22 % g-1
Biodistribution [35]: 2.31 % g-1
Structure (SMILES): N/C(CCn1cnc([N+](=O)[O-])c1)=N\O
